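Cells were grown in 96-well plates and exposed to each compound for 48 hours at five concentrations; endpoints were interpolated linearly between bracketing concentrations, or set to the highest concentration if not reached. GI50: concentration for 50% inhibition of growth.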 Calls of active or inactive are those of the source. Cut-off read from the data, not from the text of the source: active = GI50 up to about 1.1 µM and inactive = higher.
Assays:
Experiment in all cases: NCI anticancer screen, dose series, 48 h
IGROV-1 = tested on: IGROV-1
CCRF-CEM = tested on: CCRF-CEM
MDA-MB-435 = tested on: MDA-MB-435
COLO 205 = tested on: COLO 205
KM12 = tested on: KM12
DU-145 = tested on: DU-145
Malme-3M = tested on: Malme-3M
EKVX = tested on: EKVX
U-251 = tested on: U-251
SK-MEL-5 = tested on: SK-MEL-5
HOP-92 = tested on: HOP-92
HT-29 = tested on: HT-29
PC-3 = tested on: PC-3
NCI/ADR-RES = tested on: NCI/ADR-RES
SF-268 = tested on: SF-268
OVCAR-3 = tested on: OVCAR-3
HCC 2998 = tested on: HCC 2998
RXF 393 = tested on: RXF 393
MDA-N = tested on: MDA-N
Hs-578T = tested on: Hs-578T

| Compound | GI50 (IGROV-1) | GI50 (CCRF-CEM) | GI50 (MDA-MB-435) | GI50 (COLO 205) | GI50 (KM12) | GI50 (DU-145) | GI50 (Malme-3M) | GI50 (EKVX) | GI50 (U-251) | GI50 (SK-MEL-5) | GI50 (HOP-92) | GI50 (HT-29) | GI50 (PC-3) | GI50 (NCI/ADR-RES) | GI50 (SF-268) | GI50 (OVCAR-3) | GI50 (HCC 2998) | GI50 (RXF 393) | GI50 (MDA-N) | GI50 (Hs-578T) |
| --- | --- | --- | --- | --- | --- | --- | --- | --- | --- | --- | --- | --- | --- | --- | --- | --- | --- | --- | --- | --- |
| COc1ccc(/C=C/C(=N/NC(=O)N/N=C(/C=C/c2ccc(OC)cc2)C(C)C)C(C)C)cc1 | > 100 µM (inactive) | 48.9 µM (inactive) | > 100 µM (inactive) | 43.7 µM (inactive) | 51.2 µM (inactive) | 80.2 µM (inactive) | 62.8 µM (inactive) | 40 µM (inactive) | 71 µM (inactive) | 95.9 µM (inactive) | 66.7 µM (inactive) | 42.3 µM (inactive) | 50.9 µM (inactive) | 69.7 µM (inactive) | > 100 µM (inactive) | 41.9 µM (inactive) | 38.7 µM (inactive) | > 100 µM (inactive) | > 100 µM (inactive) | > 100 µM (inactive) |
| COc1cc2cc(C(=O)N3CC(COS(C)(=O)=O)c4ccc(NC(=O)OCc5ccccc5)cc43)[nH]c2c(OC)c1OC (stereo not given) | > 100 µM (inactive) | > 100 µM (inactive) | > 100 µM (inactive) | > 100 µM (inactive) | > 100 µM (inactive) | > 100 µM (inactive) | > 100 µM (inactive) | > 100 µM (inactive) | > 100 µM (inactive) | 26.5 µM (inactive) | 9.59 µM (inactive) | > 100 µM (inactive) | > 100 µM (inactive) | > 100 µM (inactive) | > 100 µM (inactive) | > 100 µM (inactive) | 84.3 µM (inactive) | 25.2 µM (inactive) | > 100 µM (inactive) | > 100 µM (inactive) |
| Cn1c2ccccc2c(=NNc2cccc(C(=O)O)c2)c2ccccc21 | 17.8 µM (inactive) | 6.41 µM (inactive) | 13.3 µM (inactive) | 12.2 µM (inactive) | 23.3 µM (inactive) | 11.9 µM (inactive) | 20.1 µM (inactive) | 5.57 µM (inactive) | 4.69 µM (inactive) | 14.7 µM (inactive) | 14.8 µM (inactive) | 3.1 µM (inactive) | 4.92 µM (inactive) | 24.3 µM (inactive) | 10.9 µM (inactive) | 3.57 µM (inactive) | 3.3 µM (inactive) | 6.38 µM (inactive) | 16.1 µM (inactive) | 17.8 µM (inactive) |
| O=c1oc2ccccc2cc1-c1cn2ccccc2n1 | 7.05 µM (inactive) | 5.18 µM (inactive) | 4.1 µM (inactive) | 30.1 µM (inactive) | 10.5 µM (inactive) | 7.82 µM (inactive) | 3.22 µM (inactive) | 11.4 µM (inactive) | 2.33 µM (inactive) | 6.18 µM (inactive) | 16.6 µM (inactive) | 12.6 µM (inactive) | 4.26 µM (inactive) | 3.15 µM (inactive) | 2.96 µM (inactive) | 4.16 µM (inactive) | 20.1 µM (inactive) | 3.85 µM (inactive) | 4.88 µM (inactive) | 4.5 µM (inactive) |
| Cc1cc2[nH]c(Cl)c(/C=C3\C(=O)Nc4ccccc43)c2cc1O | 1.8 µM (inactive) | 1.2 µM (inactive) | 0.29 µM (active) | 13.8 µM (inactive) | 2.92 µM (inactive) | 2.86 µM (inactive) | 1.6 µM (inactive) | 4.7 µM (inactive) | 2.26 µM (inactive) | 1.2 µM (inactive) | 8.93 µM (inactive) | 4.07 µM (inactive) | 2.2 µM (inactive) | 3.25 µM (inactive) | 4.69 µM (inactive) | 4.61 µM (inactive) | 4.2 µM (inactive) | 2.25 µM (inactive) | 0.379 µM (active) | 4.18 µM (inactive) |
| CC1CCCCCC(=O)c2c(O)cc(O)cc2CC(=O)O1 (stereo not given) [CURVULARIN] | > 100 µM (inactive) | 74.3 µM (inactive) | > 100 µM (inactive) | > 100 µM (inactive) | > 100 µM (inactive) | > 100 µM (inactive) | > 100 µM (inactive) | 61.5 µM (inactive) | > 100 µM (inactive) | > 100 µM (inactive) | > 100 µM (inactive) | > 100 µM (inactive) | 66.8 µM (inactive) | > 100 µM (inactive) | > 100 µM (inactive) | 96.6 µM (inactive) | > 100 µM (inactive) | > 100 µM (inactive) | > 100 µM (inactive) | > 100 µM (inactive) |
| C[C@@H]1CCC2[C@@H](C)[C@H](O[C@H]3O[C@@H]4O[C@@]5(C)CCC6[C@H](C)CCC([C@H]3C)[C@]64OO5)O[C@@H]3O[C@@]4(C)CCC1[C@@]23OO4 (stereo not given in full) | 0.931 µM (active) | 0.0462 µM (active) | 0.06 µM (active) | 0.0388 µM (active) | 0.0317 µM (active) | 1.93 µM (inactive) | 0.635 µM (active) | 0.142 µM (active) | 0.0637 µM (active) | 0.09 µM (active) | 0.114 µM (active) | 0.0491 µM (active) | 0.0148 µM (active) | 0.192 µM (active) | 3.44 µM (inactive) | 0.408 µM (active) | 0.813 µM (active) | 1.3 µM (inactive) | 0.136 µM (active) | 0.39 µM (active) |
| O=C(/C=C1\Nc2ccccc2N\C1=C/C(=O)c1ccc(F)cc1)c1ccc(F)cc1 | > 100 µM (inactive) | 25.5 µM (inactive) | > 100 µM (inactive) | > 100 µM (inactive) | > 100 µM (inactive) | > 100 µM (inactive) | > 100 µM (inactive) | > 100 µM (inactive) | 73.6 µM (inactive) | > 100 µM (inactive) | > 100 µM (inactive) | > 100 µM (inactive) | > 100 µM (inactive) | > 100 µM (inactive) | > 100 µM (inactive) | 48.2 µM (inactive) | 63.2 µM (inactive) | > 100 µM (inactive) | > 100 µM (inactive) | > 100 µM (inactive) |
| O=C(O)c1c2c(cc3c1CC(Cc1ccccc1)C3=O)CCC2 (stereo not given) | > 100 µM (inactive) | 43.7 µM (inactive) | > 100 µM (inactive) | > 100 µM (inactive) | 65.8 µM (inactive) | > 100 µM (inactive) | > 100 µM (inactive) | > 100 µM (inactive) | > 100 µM (inactive) | > 100 µM (inactive) | 29.5 µM (inactive) | 57.8 µM (inactive) | 64.3 µM (inactive) | > 100 µM (inactive) | > 100 µM (inactive) | > 100 µM (inactive) | > 100 µM (inactive) | > 100 µM (inactive) | > 100 µM (inactive) | > 100 µM (inactive) |
| CC(C)[Si](OC1=C(C(=O)N(C)c2ccccc2Cl)CCCC1)(C(C)C)C(C)C | 16.9 µM (inactive) | 12.7 µM (inactive) | 16.4 µM (inactive) | 14.5 µM (inactive) | 14.2 µM (inactive) | 10.6 µM (inactive) | 13 µM (inactive) | 13.6 µM (inactive) | 12.1 µM (inactive) | 13.8 µM (inactive) | 13.3 µM (inactive) | 15.8 µM (inactive) | 11.4 µM (inactive) | 14.9 µM (inactive) | 13.9 µM (inactive) | 13.2 µM (inactive) | 13.6 µM (inactive) | 16.1 µM (inactive) | 16.4 µM (inactive) | 13.3 µM (inactive) |
| COc1c2ccsc2c(OC)c2ccsc12 | > 100 µM (inactive) | > 100 µM (inactive) | > 100 µM (inactive) | > 100 µM (inactive) | > 100 µM (inactive) | > 100 µM (inactive) | > 100 µM (inactive) | > 100 µM (inactive) | 95.7 µM (inactive) | > 100 µM (inactive) | 39.4 µM (inactive) | > 100 µM (inactive) | > 100 µM (inactive) | > 100 µM (inactive) | > 100 µM (inactive) | > 100 µM (inactive) | > 100 µM (inactive) | 35.2 µM (inactive) | > 100 µM (inactive) | 71.4 µM (inactive) |
| Nc1ccccc1.O=P(O)(O)c1ccccc1 | > 100 µM (inactive) | > 100 µM (inactive) | > 100 µM (inactive) | > 100 µM (inactive) | > 100 µM (inactive) | > 100 µM (inactive) | > 100 µM (inactive) | > 100 µM (inactive) | > 100 µM (inactive) | > 100 µM (inactive) | > 100 µM (inactive) | > 100 µM (inactive) | > 100 µM (inactive) | > 100 µM (inactive) | > 100 µM (inactive) | > 100 µM (inactive) | > 100 µM (inactive) | > 100 µM (inactive) | > 100 µM (inactive) | > 100 µM (inactive) |
| CCOC(=O)c1cc2cc3c4c(c2oc1=O)CCCN4CCC3 | 27.2 µM (inactive) | 29.4 µM (inactive) | 28.3 µM (inactive) | 24.7 µM (inactive) | 23.8 µM (inactive) | 31.6 µM (inactive) | 49.3 µM (inactive) | 12 µM (inactive) | 28.8 µM (inactive) | 13.4 µM (inactive) | 17.1 µM (inactive) | 31.8 µM (inactive) | 29 µM (inactive) | 22.2 µM (inactive) | 19.2 µM (inactive) | 29.9 µM (inactive) | 78.9 µM (inactive) | 10.4 µM (inactive) | 37.2 µM (inactive) | 25 µM (inactive) |
| O=C1Nc2ccccc2/C1=C1/Nc2ccccc2/C1=N/OCCOCCO | 0.0836 µM (active) | 3.27 µM (inactive) | 3.15 µM (inactive) | 1.39 µM (inactive) | 0.0423 µM (active) | 1.39 µM (inactive) | 1.43 µM (inactive) | 2.67 µM (inactive) | 3.29 µM (inactive) | 1.57 µM (inactive) | 13.8 µM (inactive) | 1.45 µM (inactive) | 2.36 µM (inactive) | 4.17 µM (inactive) | 3.19 µM (inactive) | 2.06 µM (inactive) | 2.76 µM (inactive) | 1.03 µM (active) | 3.24 µM (inactive) | 0.592 µM (active) |

Source: ChEMBL document CHEMBL1201862, “PubChem BioAssay data set” (2004)
